# Earlier results in patent US20030133995A1, “Ingestible capsaicin neutralizer” (priority 2002, published 2003).
# Legend:
# [1] = pure capsaicin
# tongue = conditions: pure form diluted one hundred thousand fold
# [2] = pure form
smiles,measurement,setting,value
"COc1cc(CNC(=O)CCCC/C=C/C(C)C)ccc1O [capsaicin, N-Vanillyl-8-methyl-6-(E)-noneamide]",heat sensation,[1],"approximately 16,000,000 Scoville units"
same,blistering of the tongue,tongue,can cause blistering of the tongue
same,solubility in aqueous solutions,[2]; aqueous solutions,not very soluble
same,"solubility in fats, oils and alcohols","[2]; fats, oils and alcohols",quite soluble
